Assay results published in ChEMBL document CHEMBL5625256, “Rapid access to icetexane diterpenes: Their protective effects against lipopolysaccharides-induced acute lung injury via PI3K/AKT/NF-κB axis in macrophages” (Eur J Med Chem, 2023).
Calls of active or inactive are those of the source. The calls are words filed in the database; no cut-off is given here.

Assays:
RAW264.7 [1] = assay: Cytotoxicity against mouse RAW264.7 cells assessed as reduction in cell viability at 60 uM measured after 24 hrs by MTT assay; format: toxicity, cell-based; details: raw264.7, 24 h
Mus musculus [2] = assay: In vivo inhibition of PI3K-AKT phosphorylation in LPS-induced […] C57BL/6 mouse model at 5 to 25 mg/kg, ip measured for 24 hrs by Immunohistochemistry analysis; format: functional, organism-based; details: dose 5-25 mg/kg
RAW264.7 [3] = assay: Antiinflammatory activity against LPS-induced mouse RAW264.7 cells assessed as decrease in IkappaBalpha level incubated for 8 hrs by DAPI staining based immunofluorescence analysis; format: functional, cell-based; details: dose <= 20.0 µM
RAW264.7 [4] = assay: Antiinflammatory activity against mouse RAW264.7 cells assessed as reduction in LPS-induced ROS production incubated for 8 hrs by DCFH-DA staining based flow cytometry analysis; format: functional, cell-based; details: dose <= 20.0 µM
Mus musculus [5] = assay: Antiinflammatory activity against LPS-induced […] C57BL/6 mouse model assessed as reduction IkappaBalpha level in lung at 5 to 25 mg/kg, ip incubated for 24 hrs by Western blot analysis; format: functional, organism-based; details: dose 5-25 mg/kg
RAW264.7 [6] = assay: Antiinflammatory activity against LPS-induced mouse RAW264.7 cells assessed as decrease in IL-6 mRNA expression incubated for 8 hrs by RT-PCR analysis; format: functional, cell-based; details: dose <= 20.0 µM
RAW264.7 [7] = assay: Antiinflammatory activity against LPS-induced mouse RAW264.7 cells assessed as downregulation of total AKT level incubated for 8 hrs by Western blot analysis; format: functional, cell-based; details: dose <= 20.0 µM
RAW264.7 [8] = assay: Antiinflammatory activity against LPS-induced mouse RAW264.7 cells assessed as decrease in TNF-alpha mRNA expression incubated for 8 hrs by RT-PCR analysis; format: functional, cell-based; details: dose <= 20.0 µM
RAW264.7 [9] = assay: Antiinflammatory activity against LPS-induced mouse RAW264.7 cells assessed as decrease in NF-kappaB level incubated for 8 hrs by DAPI staining based immunofluorescence analysis; format: functional, cell-based; details: dose <= 20.0 µM
RAW264.7 [10] = assay: Antiinflammatory activity against LPS-induced mouse RAW264.7 cells transfected with AKT shRNA assessed as decrease in TNF-alpha expression incubated for 8 hrs by Western blot analysis; format: functional, cell-based; details: dose <= 20.0 µM
Mus musculus [11] = assay: Antiinflammatory activity against LPS-induced […] C57BL/6 mouse model assessed as reduction in IL-6 mRNA expression in lung at 5 to 25 mg/kg, ip incubated for 24 hrs by RT-PCR analysis; format: functional, organism-based; details: dose 5-25 mg/kg
RAW264.7 [12] = assay: Antiinflammatory activity against LPS-induced mouse RAW264.7 cells transfected with AKT shRNA assessed as decrease in IL-1beta expression incubated for 8 hrs by Western blot analysis; format: functional, cell-based; details: dose <= 20.0 µM
RAW264.7 [13] = assay: Antiinflammatory activity against LPS-induced mouse RAW264.7 cells assessed as inhibition of NO release incubated for 8 hrs […]; format: functional, cell-based; details: dose <= 20.0 µM
RAW264.7 [14] = assay: Antiinflammatory activity against LPS-induced mouse RAW264.7 cells assessed as decrease in NF-kappaB level incubated for 8 hrs by Western blot analysis; format: functional, cell-based; details: dose <= 20.0 µM
Mus musculus [15] = assay: Antiinflammatory activity against LPS-induced […] in ip dosed C57BL/6 mouse model assessed as increase in SOD level in serum incubated for 24 hrs; format: functional, organism-based; details: dose 5-25 mg/kg
RAW264.7 [16] = assay: Antiinflammatory activity against LPS-induced mouse RAW264.7 cells assessed as decrease in nuclear translocation incubated for 8 hrs by Western blot analysis; format: functional, cell-based; details: dose <= 20.0 µM
RAW264.7 [17] = assay: Antiinflammatory activity against LPS-induced mouse RAW264.7 cells assessed as decrease in IL-1beta mRNA expression at 10 uM incubated for 8 hrs by RT-PCR analysis; format: functional, cell-based
RAW264.7 [18] = assay: Antiinflammatory activity against LPS-induced mouse RAW264.7 cells assessed as decrease in IkappaBalpha level incubated for 8 hrs by Western blot analysis; format: functional, cell-based; details: dose <= 20.0 µM
Mus musculus [19] = assay: Antiinflammatory activity against LPS-induced […] C57BL/6 mouse model assessed as reduction in TNF-alpha mRNA expression in lung at 5 to 25 mg/kg, ip incubated for 24 hrs by RT-PCR analysis; format: functional, organism-based; details: dose 5-25 mg/kg
Mus musculus [20] = assay: In vivo inhibition of PI3K-AKT phosphorylation in LPS-induced […] C57BL/6 mouse model at 5 to 25 mg/kg, ip measured for 24 hrs by Western blot analysis; format: functional, organism-based; details: dose 5-25 mg/kg
RAW264.7 [21] = assay: Antiinflammatory activity against LPS-induced mouse RAW264.7 cells assessed as decrease in IL-6 mRNA expression at 10 uM incubated for 8 hrs by RT-PCR analysis; format: functional, cell-based
RAW264.7 [22] = assay: Antiinflammatory activity against LPS-induced mouse RAW264.7 cells assessed as decrease in nuclear translocation incubated for 8 hrs by DAPI staining based immunofluorescence analysis; format: functional, cell-based; details: dose <= 20.0 µM
RAW264.7 [23] = assay: Antiinflammatory activity against LPS-induced mouse RAW264.7 cells assessed as decrease in TNF-alpha mRNA expression at 10 uM incubated for 8 hrs by RT-PCR analysis; format: functional, cell-based
RAW264.7 [24] = assay: Antiinflammatory activity against LPS-induced mouse RAW264.7 cells assessed as decrease in IL-1beta mRNA expression incubated for 8 hrs by RT-PCR analysis; format: functional, cell-based; details: dose <= 20.0 µM
RAW264.7 [25] = assay: Antiinflammatory activity against LPS-induced mouse RAW264.7 cells assessed as suppression of iNOS mRNA expression incubated for 8 hrs by RT-PCR analysis; format: functional, cell-based; details: dose <= 20.0 µM
Mus musculus [26] = assay: Antiinflammatory activity against LPS-induced […] C57BL/6 mouse model assessed as reduction in lung injury score at 5 to 25 mg/kg, ip incubated for 24 hrs by H and E staining based analysis; format: functional, organism-based; details: dose 5-25 mg/kg
Mus musculus [27] = assay: Antiinflammatory activity against LPS-induced […] C57BL/6 mouse model assessed as reduction in IL-1beta mRNA expression in lung at 5 to 25 mg/kg, ip incubated for 24 hrs by RT-PCR analysis; format: functional, organism-based; details: dose 5-25 mg/kg
RAW264.7 [28] = assay: Antiinflammatory activity against LPS-induced mouse RAW264.7 cells assessed as downregulation of PI3K level incubated for 8 hrs by Western blot analysis; format: functional, cell-based; details: dose <= 20.0 µM
Mus musculus [29] = assay: Antiinflammatory activity against LPS-induced […] in ip dosed C57BL/6 mouse model assessed as reduction in MDA level in serum incubated for 24 hrs; format: functional, organism-based; details: dose 5-25 mg/kg
RAW264.7 [30] = assay: Antiinflammatory activity against LPS-induced mouse RAW264.7 cells transfected with AKT shRNA assessed as decrease in IL-6 expression incubated for 8 hrs by Western blot analysis; format: functional, cell-based; details: dose <= 20.0 µM
RAW264.7 [31] = assay: Antiinflammatory activity against LPS-induced mouse RAW264.7 cells assessed as downregulation of AKT level incubated for 8 hrs by Western blot analysis; format: functional, cell-based; details: dose <= 20.0 µM
RAW264.7 [32] = assay: Antiinflammatory activity against LPS-induced mouse RAW264.7 cells assessed as downregulation of total PI3K level incubated for 8 hrs by Western blot analysis; format: functional, cell-based; details: dose <= 20.0 µM

## COc1c(C(C)C)cc2c(=O)cc3c(cc2c1OC)C=CC(O)C3(C)C (configuration not stated)
RAW264.7 [1]
  Activity: Toxic

## COc1c(C(C)C)cc2c(=O)cc3c(cc2c1OC)C=CC(=O)C3(C)C
Mus musculus [2]
  inhibition: Active
RAW264.7 [3]
  Activity: Dose-Dependent Effect
RAW264.7 [4]
  Activity: Dose-Dependent Effect
Mus musculus [5]
  Activity: Active
RAW264.7 [6]
  Activity: Dose-Dependent Effect
RAW264.7 [7]
  Activity: Dose-Dependent Effect
RAW264.7 [8]
  Activity: Dose-Dependent Effect
RAW264.7 [9]
  Activity: Dose-Dependent Effect
RAW264.7 [10]
  Activity: Dose-Dependent Effect
Mus musculus [11]
  Activity: Active
RAW264.7 [12]
  Activity: Dose-Dependent Effect
RAW264.7 [13]
  Activity: Dose-Dependent Effect
RAW264.7 [14]
  Activity: Dose-Dependent Effect
Mus musculus [15]
  Activity: Dose-Dependent Effect
RAW264.7 [16]
  Activity: Dose-Dependent Effect
RAW264.7 [17]
  Activity: Active
RAW264.7 [18]
  Activity: Dose-Dependent Effect
Mus musculus [19]
  Activity: Active
Mus musculus [20]
  inhibition: Active
RAW264.7 [21]
  Activity: Active
RAW264.7 [22]
  Activity: Dose-Dependent Effect
RAW264.7 [23]
  Activity: Active
RAW264.7 [24]
  Activity: Dose-Dependent Effect
RAW264.7 [25]
  Activity: Dose-Dependent Effect
Mus musculus [26]
  Activity: Active
Mus musculus [27]
  Activity: Active
RAW264.7 [28]
  Activity: Dose-Dependent Effect
Mus musculus [29]
  Activity: Dose-Dependent Effect
RAW264.7 [30]
  Activity: Dose-Dependent Effect
RAW264.7 [31]
  Activity: Dose-Dependent Effect
RAW264.7 [32]
  Activity: Dose-Dependent Effect

## C[C@@H]1C[C@H]2[C@@H]3CCC4=CC(=O)C=C[C@]4(C)[C@@]3(F)[C@@H](O)C[C@]2(C)[C@@]1(O)C(=O)CO
RAW264.7 [17]
  Activity: Active
RAW264.7 [21]
  Activity: Active
RAW264.7 [23]
  Activity: Active

## CC(C)c1cc2c(c(O)c1O)C=C1C=CC(=O)C(C)(C)C1CC2=O (configuration not stated)
RAW264.7 [1]
  Activity: Toxic

## CC(C)c1cc2c(c3c1OC(C)(C)O3)C=C1C=CC(=O)C(C)(C)C1=CC2
RAW264.7 [1]
  Activity: Toxic
